In ChEMBL document CHEMBL1129004, “Synthesis and in vitro cytotoxicity of cis-(glycolato-O,O)-[2-substituted-(4R,5R)-4,5-bis(aminomethyl)-1,3-dioxolane]platinum (II)” (Bioorg Med Chem Lett, 1996):

How the values were obtained:
Assay type in all cases: functional, cell-based
[1] = test system: KATO III stomach cancer cell line; assay: Compound was tested in vitro for cytotoxic activity against KATO III human stomach cancer cell line by MTT assay
MKN-45 = assay: Compound was tested in vitro for cytotoxic activity against MKN-45 human stomach cancer cell line by MTT assay
PC-9 = assay: Compound was tested in vitro for cytotoxic activity against PC-9 human non-small cell lung cancer cell line by MTT assay
PC-14 = assay: Compound was tested in vitro for cytotoxic activity against PC-14 human non-small cell lung cancer cell line by MTT assay

Row | Sequence | IC50 [1] [µM] | IC50 (MKN-45) [µM] | IC50 (PC-9) [µM] | IC50 (PC-14) [µM]
1 | CARBOPLATIN | 49.7 | 32.4 | 60.5 | 9.7
2 | CISPLATIN | 5.2 | 3.7 | 5 | 1.5
